# Experimental data: US20210300940A1 (Merck Patent GmbH, priority 2018, published 2021)
# Structures can show the parent of a compound that is named as a salt.
# Experiments:
# TLR7 = biological target: T1, TLR7 (Homo sapiens, UniProt Q9NYK1); assay: HEK/293 TLR7 Cell Assay; type: cell-based; details: TLR7/NFKb HEK cells, R848 agonist 10 uM final concentration, Steady-Glo readout; read-out: TLR7 potency
# T1 construct: expressed in transfected cells; host or cells: HEK/293 cells carrying TLR7 and an NF-kB luciferase reporter
# T1 sequence (Q9NYK1 27-1049): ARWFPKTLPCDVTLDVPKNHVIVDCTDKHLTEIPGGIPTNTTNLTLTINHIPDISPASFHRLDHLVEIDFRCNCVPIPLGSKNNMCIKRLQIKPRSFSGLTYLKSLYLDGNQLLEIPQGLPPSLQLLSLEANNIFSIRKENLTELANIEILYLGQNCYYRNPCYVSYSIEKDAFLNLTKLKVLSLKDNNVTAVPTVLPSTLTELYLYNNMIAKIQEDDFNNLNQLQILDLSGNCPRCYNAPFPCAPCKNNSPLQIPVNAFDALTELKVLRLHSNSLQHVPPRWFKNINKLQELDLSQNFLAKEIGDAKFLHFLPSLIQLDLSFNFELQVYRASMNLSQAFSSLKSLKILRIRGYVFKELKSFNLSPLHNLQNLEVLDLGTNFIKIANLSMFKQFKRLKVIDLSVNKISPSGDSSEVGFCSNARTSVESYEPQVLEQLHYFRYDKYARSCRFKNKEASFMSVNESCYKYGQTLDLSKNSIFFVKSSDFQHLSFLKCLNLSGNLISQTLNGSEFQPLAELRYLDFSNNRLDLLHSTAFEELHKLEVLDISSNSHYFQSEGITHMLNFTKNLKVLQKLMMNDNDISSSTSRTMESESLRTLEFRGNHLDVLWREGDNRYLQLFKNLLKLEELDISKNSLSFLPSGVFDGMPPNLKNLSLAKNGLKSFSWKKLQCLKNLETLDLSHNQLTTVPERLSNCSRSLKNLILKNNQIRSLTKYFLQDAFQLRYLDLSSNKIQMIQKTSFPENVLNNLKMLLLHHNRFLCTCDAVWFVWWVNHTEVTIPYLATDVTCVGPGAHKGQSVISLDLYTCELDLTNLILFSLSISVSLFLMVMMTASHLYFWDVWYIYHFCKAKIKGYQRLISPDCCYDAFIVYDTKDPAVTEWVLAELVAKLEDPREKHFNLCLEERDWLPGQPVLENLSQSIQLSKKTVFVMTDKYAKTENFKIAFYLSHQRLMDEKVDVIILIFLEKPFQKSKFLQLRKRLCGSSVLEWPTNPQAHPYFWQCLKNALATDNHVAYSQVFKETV
# Method in brief: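 Compounds added to HEK cells expressing TLR7 with an NFκB reporter 30 min ahead of 10 uM R848 challenge; luciferase signal (Steady-Glo) measured after 5 h, cells having been seeded 24 h earlier at 5000 per well.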
# TLR8 = biological target: T2, TLR8 (Homo sapiens, UniProt Q9NR97); assay: HEK/293 TLR8 Cell Assay; type: cell-based; details: HEK cells, R848 agonist 30 uM final concentration, Steady-Glo readout; read-out: TLR8 potency
# T2 construct: expressed in transfected cells; host or cells: HEK/293 reporter cells (NF-kB luciferase)
# T2 sequence (Q9NR97 27-1041): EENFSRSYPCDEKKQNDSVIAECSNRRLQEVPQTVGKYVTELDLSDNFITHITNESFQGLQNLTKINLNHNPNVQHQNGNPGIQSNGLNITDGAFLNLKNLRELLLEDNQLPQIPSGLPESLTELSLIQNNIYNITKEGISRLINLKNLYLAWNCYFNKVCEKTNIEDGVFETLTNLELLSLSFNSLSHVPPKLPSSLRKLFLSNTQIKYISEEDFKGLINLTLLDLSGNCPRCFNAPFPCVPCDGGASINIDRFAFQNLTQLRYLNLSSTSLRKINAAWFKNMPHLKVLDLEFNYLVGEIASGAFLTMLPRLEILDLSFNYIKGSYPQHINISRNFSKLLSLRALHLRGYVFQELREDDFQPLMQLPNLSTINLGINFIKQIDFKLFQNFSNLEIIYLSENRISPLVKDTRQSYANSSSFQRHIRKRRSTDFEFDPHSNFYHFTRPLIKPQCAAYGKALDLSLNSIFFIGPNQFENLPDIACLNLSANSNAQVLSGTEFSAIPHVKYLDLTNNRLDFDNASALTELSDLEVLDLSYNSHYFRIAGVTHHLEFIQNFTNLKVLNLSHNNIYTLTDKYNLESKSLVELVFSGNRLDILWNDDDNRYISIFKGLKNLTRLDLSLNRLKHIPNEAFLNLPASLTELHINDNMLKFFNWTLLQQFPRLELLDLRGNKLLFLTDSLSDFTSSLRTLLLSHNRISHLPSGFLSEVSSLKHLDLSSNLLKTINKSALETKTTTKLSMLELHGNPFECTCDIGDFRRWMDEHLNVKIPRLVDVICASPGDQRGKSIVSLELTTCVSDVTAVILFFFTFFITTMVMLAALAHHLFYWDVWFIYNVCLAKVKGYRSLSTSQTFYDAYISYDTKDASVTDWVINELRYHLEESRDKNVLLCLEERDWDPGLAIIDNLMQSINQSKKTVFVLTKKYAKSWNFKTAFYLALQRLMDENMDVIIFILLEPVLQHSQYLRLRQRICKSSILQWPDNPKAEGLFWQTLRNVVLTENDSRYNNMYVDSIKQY
smiles,measurement,setting,value
"N#Cc1ccc(N2C[C@H](n3cccn3)C[C@H](C(F)(F)F)C2)c2nccnc12 (racemic) [Example 156, 8-[cis-3-(1H-pyrazol-1-yl)-5-(trifluoromethyl)piperidin-1-yl]quinoxaline-5-carbonitrile]",IC50,TLR7,> 0.15 µM
same,IC50,TLR8,> 0.15 µM
"C[C@H]1C[C@@H](N)CN(c2cnc(C#N)c3ncccc23)C1 [Example 8, 5-((3R,5S)-3-Amino-5-methyl-piperidin-1-yl)-[1,7]naphthyridine-8-carbonitrile hydrochloride]",IC50,TLR7,< 0.075 µM
same,IC50,TLR8,< 0.075 µM
"N#Cc1ccc(N2C[C@H](CN3CCC4(CC3)CC(=O)N4)O[C@H](C(F)(F)F)C2)c2nccnc12 (single isomer, unassigned) [Example 363]",IC50,TLR7,< 0.075 µM
same,IC50,TLR8,> 0.15 µM
"C[C@H]1C[C@@H](NC(=O)CC2CN(C)C2)CN(c2cc(F)c(C#N)c3ncccc23)C1 [Example 59, N-[(3R,5S)-1-(8-Cyano-7-fluoro-quinolin-5-yl)-5-methyl-piperidin-3-yl]-2-(1-methyl-azetidin-3-yl)-acetamide]",IC50,TLR7,0.075 to 0.15 µM
same,IC50,TLR8,> 0.15 µM
"CC(=O)NCCN[C@@H]1C[C@H](C(F)(F)F)CN(c2ccc(C#N)c3ncccc23)C1 [Example 44, N-{2-[(3R,5S)-1-(8-Cyano-quinolin-5-yl)-5-trifluoromethyl-piperidin-3-ylamino]-ethyl}-acetamide]",IC50,TLR7,< 0.075 µM
same,IC50,TLR8,0.075 to 0.15 µM
"C[C@@H]1CN(c2cnc(C(F)(F)F)c3ncccc23)C[C@H](CNC[C@H]2CN(C)CCO2)O1 (single isomer, unassigned) [Example 385]",IC50,TLR7,> 0.15 µM
same,IC50,TLR8,< 0.075 µM
"N#Cc1ccc(N2C[C@H](NC(=O)C3(F)CCNC3)C[C@H](C(F)(F)F)C2)c2cccnc12 (single isomer, unassigned) [Example 163]",IC50,TLR7,< 0.075 µM
same,IC50,TLR8,< 0.075 µM
"N#Cc1ccc(N2C[C@@H](C(F)(F)F)O[C@@H](C(=O)NC[C@]3(F)CCNC3)C2)c2cccnc12 (single isomer, unassigned) [Example 314]",IC50,TLR7,> 0.15 µM
same,IC50,TLR8,> 0.15 µM
"N#Cc1ccc(N2C[C@@H](C(=O)NC[C@@]3(F)CCNC3)O[C@@H](C(F)(F)F)C2)c2nccnc12 (single isomer, unassigned) [Example 308]",IC50,TLR7,< 0.075 µM
same,IC50,TLR8,< 0.075 µM
"C[C@H]1CN(c2ccc(C#N)c3nccnc23)C[C@H](CN2CCC(N3CCCC3)CC2)O1 [Example 232, 8-[(2S,6S)-2-Methyl-6-(4-pyrrolidin-1-yl-piperidin-1-ylmethyl)-morpholin-4-yl]-quinoxaline-5-carbonitrile]",IC50,TLR7,< 0.075 µM
same,IC50,TLR8,< 0.075 µM
"CN1CCC(C(=O)N[C@@H]2C[C@H](C(F)(F)F)CN(c3ccc(C#N)c4ncccc34)C2)CC1 [Example 61, 1-Methyl-piperidine-4-carboxylic acid [(3R,5S)-1-(8-cyano-quinolin-5-yl)-5-trifluoromethyl-piperidin-3-yl]-amide]",IC50,TLR7,< 0.075 µM
same,IC50,TLR8,< 0.075 µM
"CN1CCC(F)(CC(=O)N[C@@H]2C[C@H](C(F)(F)F)CN(c3ccc(C#N)c4ncncc34)C2)CC1 [Example 71, N-[(3R,5S)-1-(8-cyanoquinazolin-5-yl)-5-(trifluoromethyl)piperidin-3-yl]-2-(4-fluoro-1-methylpiperidin-4-yl)acetamide]",IC50,TLR7,< 0.075 µM
same,IC50,TLR8,0.075 to 0.15 µM
"CNS(=O)(=O)CCNC(=O)[C@H]1CN(c2ccc(C#N)c3nccnc23)C[C@@H](C)O1 [Example 255, (2R,6R)-4-(8-cyanoquinoxalin-5-yl)-6-methyl-N-[2-(methylsulfamoyl)ethyl]morpholine-2-carboxamide]",IC50,TLR7,< 0.075 µM
same,IC50,TLR8,< 0.075 µM
"C[C@H]1C[C@@H](NC(=O)NC2CCN(C)CC2)CN(c2ccc(C(F)(F)F)c3ncccc23)C1 [Example 147, 1-(1-Methyl-piperidin-4-yl)-3-[(3R,5S)-5-methyl-1-(8-trifluoromethyl-quinolin-5-yl)-piperidin-3-yl]-urea]",IC50,TLR7,> 0.15 µM
same,IC50,TLR8,< 0.075 µM
"C[C@H]1C[C@@H](n2cccn2)CN(c2ccc(C(F)(F)F)c3nccnc23)C1 (racemic) [Example 155, 5-[cis-3-methyl-5-(1H-pyrazol-1-yl)piperidin-1-yl]-8-(trifluoromethyl)quinoxaline]",IC50,TLR7,> 0.15 µM
same,IC50,TLR8,> 0.15 µM
"Cc1ccc(N2C[C@H](NC(=O)CC3CCN(C(C)C)CC3)C[C@H](C(F)(F)F)C2)c2cccnc12 [Example 109, 2-(1-Isopropyl-piperidin-4-yl)-N-[(3R,5S)-1-(8-methyl-quinolin-5-yl)-5-trifluoromethyl-piperidin-3-yl]-acetamide]",IC50,TLR7,> 0.15 µM
same,IC50,TLR8,0.075 to 0.15 µM
"CCN(C)CCNC(=O)[C@H]1CN(c2ccc(C#N)c3nccnc23)C[C@@H](C)O1 [Example 244, (2R,6R)-4-(8-Cyano-quinoxalin-5-yl)-6-methyl-morpholine-2-carboxylic acid [2-(ethyl-methyl-amino)-ethyl]-amide]",IC50,TLR7,< 0.075 µM
same,IC50,TLR8,< 0.075 µM
"CN1CC[C@@](F)(CNC(=O)[C@@H]2CN(c3ccc(C#N)c4nccnc34)C[C@H](C(F)(F)F)O2)C1 (single isomer, unassigned) [Example 356]",IC50,TLR7,< 0.075 µM
same,IC50,TLR8,< 0.075 µM
"CC(C)(O)CNC(=O)[C@H]1CN(c2ccc(C#N)c3nccnc23)C[C@@H](C(F)(F)F)O1 (single isomer, unassigned) [Example 284]",IC50,TLR7,< 0.075 µM
same,IC50,TLR8,0.075 to 0.15 µM
"C[C@@H]1CN(c2cnc(C#N)c3ncccc23)C[C@H](C(=O)NCC(O)C(F)(F)F)O1 (stereo partly drawn) [Example 269, (2R,6R)-4-(8-Cyano-[1,7]naphthyridin-5-yl)-6-methyl-morpholine-2-carboxylic acid (3,3,3-trifluoro-2-hydroxy-propyl)-amide]",IC50,TLR7,> 0.15 µM
same,IC50,TLR8,> 0.15 µM
"CC[C@@H](NC(=O)[C@H]1CN(c2ccc(C#N)c3nccnc23)C[C@@H](C)O1)C(N)=O [Example 248, (2R,6R)-4-(8-Cyano-quinoxalin-5-yl)-6-methyl-morpholine-2-carboxylic acid ((R)-1-carbamoyl-propyl)-amide]",IC50,TLR7,0.075 to 0.15 µM
same,IC50,TLR8,< 0.075 µM
"C[C@H]1C[C@@H](NCC(C)(C)O)CN(c2ccc(C(F)(F)F)c3ncccc23)C1 [Example 17, 2-Methyl-1-[(3R,5S)-5-methyl-1-(8-trifluoromethyl-quinolin-5-yl)-piperidin-3-ylamino]-propan-2-ol]",IC50,TLR7,< 0.075 µM
same,IC50,TLR8,< 0.075 µM
"C[C@H]1C[C@@H](NC(=O)[C@@H]2CCNC2)CN(c2ccc(C(F)(F)F)c3ncccc23)C1 [Example 204, (3R)—N-[(3R,5S)-5-methyl-1-[8-(trifluoromethyl)quinolin-5-yl]piperidin-3-yl]pyrrolidine-3-carboxamide]",IC50,TLR7,< 0.075 µM
same,IC50,TLR8,< 0.075 µM
